US11643691B2, “Predictive biomarkers for cancer immunotherapy and methods of using same” (Duke University, priority 2018, dated 2023)

Experiments:
[1] = system: CD8+ T cell proliferation; assay: T cell proliferation assay (CellTrace Violet dilution, OT-1 splenocytes with conditioned DCs); assay type: cell-based, mice; details: DCs pre-treated, LPS stimulated
Protocol: T Cell Proliferation Assay: Splenocytes of OT-1 mice (H-2b) were isolated and stained with CellTrace Violet (ThermoFisher). Preconditioned DCs were loaded with ovalbumin peptide SIINFEKL, and co-cultured at a DC:splenocyte ratio of 40,000:120,000 cells for 72 hrs. CD8+ T cell proliferation was measured by the dilution of Cell Trace Violet dye by flow cytometry.

[2] = system: CD4+FoxP3+ Treg cells; assay: In vitro Treg cell assay (conditioned DCs with naive CD4+ T cells); assay type: cell-based, mice; details: for DC-mediated Treg cell differentiation in vitro: treated DCs co-cultured with naive CD4+ T cells
Protocol: (§1) Dendritic Cell Conditioning: DCs were treated with Wnt3a (100 ng/mL), Wnt5a (200 ng/mL), LPS (1 μg/mL), 1-MT (1 mM), 2DG (1 mM), or ETO (100 μM), 2-DG(2-deoxy-d-glucose, 1 mM), Oligomycin (1 μM), succinylacetone (250 μM), or vehicle control either for 24 or 48 hrs prior to their use in both in vitro and in vivo experiments.
Treg Cell Assays: For in vivo Treg cell assays, DCs (C57, H-2b) were pre-treated for 48 hours and delivered by intradermal injection into the footpad of Foxp3-mRFP mice. Draining inguinal and popliteal lymph nodes were resected 5 days later and analyzed for CD4+Foxp3+ Treg cells. For in vitro Treg cell assays, DCs (Balb/c, H-2d) were pre-treated for either 24 or 48 hrs, and re-plated at a 1:3 DC:T-cell ratio with purified allogeneic naive Foxp3-mRFP(H-2b) CD44loCD62LhiCD4+ Tcells. These co-cultures were incubated for 6 days and quantitated for CD4+FoxP3+ Treg cells by flow cytometry.

[3] = system: DCs; assay: Extracellular acidification rate (ECAR), Seahorse XFe24 flux analysis of DCs; assay type: cell-based, Murine
Protocol: as §1
(§2) Cellular Energy Metabolism Analysis: DC energy metabolism was measured using the XFe24 extracellular flux analyzer (Seahorse Bioscience), with the glycolysis stress test kit and the mitochondrial stress test kit as previously described (Everts et al., 2014, Zhao and Klimecki, 2015). For experiments involving LPS injection, DCs were plated in XFe24 plates (200,000/well in 500p1) and treated with LPS for 48 hours prior to XF analysis. DCs were washed and analyzed in XF media (RPMI without sodium bicarbonate, 10 mM glucose, 1% FBS, 2 mM L-glutamine). ECAR was analyzed in real-time with or without LPS stimulation. For experiments involving BrafV600EPten−/− cell line-derived conditioned media (CM), collected CM was concentrated and desalted with an Amicon Ultra 30K filter according to manufacturer's recommendations (Milipore). Final concentrate was further washed with XF media 3 times, added to DCs immediately prior to OCR analysis. For standard ECAR analysis, XF media (without glucose) was used to wash cells prior to the assay. A final concentration of 10 mM glucose, 1 μM oligomycin, 50 mM 2-DG(sigma) were injected through XFe24 port A-C. For standard OCR analysis, XF media (with 10 mM glucose) was used to wash cells, a final concentration of 1 μM oligomycin, 1.5 μM FCCP (fluoro-carbonyl cyanide phenylhydrazone), 100 nM rotenone, and 1 μM of antimycin-A (Sigma) were injected through XFe24 port A-C.

[4] = system: syngeneic BRAF^V600EPTEN^−/− melanomas; assay: Syngeneic melanoma study with NLRP3i and anti-PD-1 ab; assay type: in vivo
Protocol: (A) Treatment of syngeneic BRAF^V600EPTEN^−/− melanomas with IgG isotype control ab (200 μg ip every 3 days), NLRP3i (MCC950 10 μg ip every 3 days), anti-PD-1 ab (200 μg ip every 3 days), or both NLRP3i and anti-PD-1 ab combination therapy (n=8). (B) Gr-MDSC flow cytometry analysis of resected BRAF^V600EPTEN^−/− melanomas following treatment with IgG isotype control ab, NLRP3i, anti-PD-1 ab, or both NLRP3i and anti-PD-1 ab combination therapy (n=4). top, representative flow cytometry dot plot. (C) CD8^+ T cell flow cytometry analysis of resected BRAF^V600EPTEN^−/− melanomas following treatment with IgG isotype control ab, NLRP3i, anti-PD-1 ab, or both NLRP3i and anti-PD-1 ab combination therapy (n=4). All data is mean±SEM. *P<0.05.
As depicted in FIG. 21A, NLRP3 inhibition can be combined with a […] (e.g. PD-1 inhibitor) to augment the anti-tumor effect of the PD-1 inhibitor therapy.

[5] = system: DCs; assay: Oxygen consumption rate (OCR) / OXPHOS, Seahorse XFe24 flux analysis of murine DCs; assay type: cell-based; details: DCs pre-treated
Protocol: as §1
as §2, with “A final concentration of 10 mM glucose, 1 μM oligomycin, 50 mM 2-DG(sigma) were injected through XFe24 port A-C. For standard OCR analysis, XF media (with 10 mM glucose) was used to wash cells, a final concentration of 1 μM oligomycin, 1.5 μM FCCP (fluoro-carbonyl cyanide phenylhydrazone), 100 nM rotenone, and 1 μM of antimycin-A (Sigma) were injected through XFe24 port A-C.” left out

[6] = system: DCs; assay: qRT-PCR / qPCR array / immunoblot gene expression in DCs; assay type: cell-based, Murine
Protocol: Dendritic Cell Conditioning: DCs were treated with Wnt3a (100 ng/mL), Wnt5a (200 ng/mL), LPS (1 μg/mL), 1-MT (1 mM), 2DG (1 mM), or ETO (100 μM), 2-DG(2-deoxy-d-glucose, 1 mM), Oligomycin (1 μM), succinylacetone (250 μM), […]
Antibodies, Immunoprecipitation, and Immunoblot Analysis: Primary antibodies including CPT1A (Cell signaling), PPAR-γ (Santa Cruz Biotechnology), β-catenin, β-actin (Millipore), p-AMPK(T172)/AMPK (Cell signaling), p-AKT(T308)/Akt (Cell Signaling) were used at 1:1000. Secondary antibodies including goat anti-rabbit IgG-HRP (Millipore) and goat anti-mouse IgG-HRP (Millipore) were used at 1:5000. Cells were lysed in Laemmli sample buffer after treatment and subjected to SDS-polyacrylamide gel electrophoresis and immunoblot analysis. For immunoprecipitation, cells were lysed in radio immunoprecipitation assay (RIPA) buffer [10 mM sodium phosphate (pH 8.0), 150 mM NaCl, 1% Triton X-100, 1% sodium deoxycholate, and 0.1% SDS in the presence of 1 mM DTT, 1 mM phenylmethylsulfonylfluoride, and a protease inhibitor cocktail (Sigma)], precleared with protein A beads, and then incubated with 1 μg of antibody against β-catenin or isotype control IgG with protein A-agarose beads on a rotator overnight at 4° C. After 3 washes with RIPA buffer, immunoprecipitated complexes were eluted in sample buffer by boiling and subjected to immunoblot analysis. Immunoblots were visualized by chemiluminescence substrate (ThermoFisher) and imaged by a ChemiDoc XRSplus system (BioRad).
RNA Isolation, RT-qPCR, qPCR Array: Total RNA was isolated by RNeasy Plus Mini Kit(Qiagen). RNA(500 ng) were used in cDNA Synthesis (iScript, BioRad). Quantification of mRNA for genes involved in PPARγ signaling was performed using Mouse PrimePCR PPAR Array according to the manufacturer's protocol (BioRad). Real-time PCR was performed using an ABI7500 Real-Time PCR system (Life Technologies). Data analysis utilized the PrimePCR Analysis Software (BioRad). Conventional qPCR was performed using validated primers, and SsoAdvanced Universal SYBR Green Super mix (BioRad) or Taqman probes (Applied Biosystems) for heme synthesis enzymes.

[7] = system: DCs; assay: PpIX flow cytometry analysis and hemin colorimetric assay; assay type: cell-based, Murine
Protocol: IDO enzymatic assay and Hemin assay: DC IDO enzyme activity was measured by the conversion of L-tryptophan to L-kynurenine in conditioned media by HPLC (Pallotta et al., 2011). Intracellular hemin was measured using a colorimetric assay kit (BioVision).
PpIX Analysis: DCs were terminally incubated in the presence of 1 mM δ-aminolevulinic acid (ALA) for 4 hrs. Intracellular PpIX was analyzed by flow cytometry as previously described (Hryhorenko et al., 1998).

O=CC[C@@H](O)[C@H](O)[C@H](O)CO [2-DG, 2-Deoxy-D-glucose, reference compound]
LPS-induced DC-mediated antigen-specific T cell proliferation [1]: suppresses LPS-induced DC-mediated antigen-specific T cell proliferation | DC-mediated Treg cell differentiation in vitro [2]: enhanced Treg cell differentiation in vitro

NC(=O)c1ncn([C@@H]2O[C@H](CO)[C@@H](O)[C@H]2O)c1N [AICAR, reference compound]
LPS-induced glycolytic surge (ECAR) ([3]; DCs pre-treated): antagonize the glycolytic surge required for DC maturation

CC(C)(O)c1coc(S(=O)(=O)NC(=O)Nc2c3c(cc4c2CCC4)CCC3)c1 [MCC950]
efficacy of anti-PD-1 ab immunotherapy ([4]; NLRP3i added to anti-PD-1 ab): Enhances the Efficacy of Anti-PD-1 Ab Immunotherapy | Gr-MDSC recruitment (Ly6G+ Gr-MDSCs) ([4]; flow cytometry of resected melanomas): Suppresses Gr-MDSC Recruitment

Oc1nc(-c2ccc(C(F)(F)F)cc2)nc2c1CSCC2 [XAV939, reference compound]
glycolysis in DCs (ECAR) [3]: promoted glycolysis in DCs

CC[C@H]1/C=C/C=C/C[C@@H](C)[C@H](O)[C@@](C)(O)C(=O)[C@@H](C)[C@H](O)[C@@H](C)C(=O)[C@@H](C)[C@H](O)[C@@H](C)/C=C/C(=O)O[C@@H]2[C@H](C)[C@H](CC1)O[C@]1(CC[C@H](C)[C@H](C[C@@H](C)O)O1)[C@H]2C [oligomycin, Oligomycin]
DC-mediated Treg cell differentiation in vitro [2]: eliminated these Treg cell populations

CC(=O)CC(=O)CCC(=O)O [succinylacetone, 4,6-Dioxoheptanoic acid]
ability of Wnt5a-conditioned DCs to drive Treg cell differentiation in vitro ([2]; Wnt5a plus inhibitor): significantly abrogated the ability of Wnt5a-stimulated DCs to promote Treg cell generation

Wnt3a
glycolysis in DCs (ECAR) [3]: no changes | OXPHOS in DCs (OCR) [5]: no changes | expression of Alas1 and further enzymes of PpIX synthesis ([6]; qRT-PCR): not | PPAR-γ (Pparg) and CPT1A (Cpt1a) expression ([6]; real-time qPCR and immunoblot, murine and human DCs for rWnt5a): failed to induce expression of both PPAR-γ and CPT1A in DCs | DC-mediated Treg cell differentiation in vitro [2]: failed to condition DCs to promote Treg cell differentiation | DC concentrations of PpIX and hemin [7]: failed to enhance PpIX synthesis in DCs
